# Source: patent US20220204577A1, “Synthetic Peptides With Affinity for the Interleukin-10 Receptor, Pharmaceutical Composition and Use Thereof as Immunomodulators for Treating Autoimmune, Inflammatory or Allergic Diseases” (Universidade Federal de Uberlândia, priority 2019, published 2022)
# Legend:
# [1] = Dynamic Light Scattering (DLS), aggregation behavior in solution; format: physicochemical
# Protocol: The aggregation behavior of peptides Pep 1, Pep 2, Pep 3, and Pep 4 in solution was determined by Dynamic Light Scattering (DLS), as shown in FIG. 1E. All synthetic peptides were approximately 100% monomeric in solution. The measured hydrodynamic radius of the peptides was similar for Pep 1 (0.82 nm), Pep 2 ([…]), Pep 3 (0.79 nm), and Pep 4 (0.86 nm).
# [2] = tested on: NFκB, IFN, or TLR4 signaling pathways; experiment: Reporter cell lines treated with peptides alone (no activating molecule); format: cell-based; settings: various concentrations, 12, 24 and 48 hours
# Protocol: To investigate the ability of the peptides to interfere with the NFkB, IFN, and TLR4 pathways, reporter cell lines were used. To analyze whether the isolated peptides (without activation molecules) could induce any type of activation, the isolated peptides were tested in the cell lines during 12, 24, and 48 hours of treatment. […] As an example, FIGS. 2A, 2B, and 2C show an analysis of NFkB expression after stimulation with the synthesized peptides described in this report. The cells were treated with the synthesized peptides Pep 1, Pep 2, Pep 3, and Pep 4 at various concentrations for 12, 24, and 48 hours, without activating molecules. Luciferase was then measured after 12 hours of treatment (FIG. 2A), 24 hours of treatment (FIG. 2B), and 48 hours of treatment (FIG. 2C). […] TNF-α (200 ng/mL) was used as a positive control.
# [3] = tested on: NFκB; experiment: NFkB expression in Jurkart-Dual reporter cells, peptide pre-treatment then TNF-α; format: cell-based; settings: peptide then TNF-α
# Protocol: The assay was then performed using TNF-α as the activating molecule not only in the control, but after a pre-treatment with the synthesized peptides Pep 1, Pep 2, Pep 3, and Pep 4 at various concentrations. […] In the assays shown in FIGS. 3 A, B, and C, NFkB expression analysis was performed in Jurkart-Dual reporter cells. Cells were treated with peptides for 1 hour and TNF-α (200 ng/ml) was added. Luciferase was measured after 12 hours of treatment (FIG. 3A), 24 hours of treatment (FIG. 3B), and 48 hours of treatment (FIG. 3C).
# [4] = tested on: NFκB; experiment: NFkB expression in Jurkart-Dual reporter cells, TNF-α pre-treatment then peptides; format: cell-based
# Protocol: Then another assay was performed in which the cells were pretreated with TNF-α and the peptides were added later. […] In the assays shown in FIGS. 4 A, B, and C the analysis of NFkB expression was performed in Jurkart-Dual reporter cells. Cells were treated with TNF-α (200 ng/ml) for 1 hour and the peptides were added. Luciferase was measured after 12 hours of treatment (FIG. 4A), 24 hours of treatment (FIG. 4B), and 48 hours of treatment (FIG. 4C). TNF-α (200 ng/mL) was used as a positive control and rIL-10 (Recombinant Interleukin-10) (0.4 ng/mL) as a negative control. * P<0.05; ** P<0.005; *** P<0.0005.
# [5] = tested on: IFN signaling pathway; experiment: IFN signaling pathway (SEAP) in Jurkart-Dual reporter cells, peptide pre-treatment then IFN-α; format: cell-based; settings: peptide then IFN-α, 48 hours
# Protocol: Therefore, we cannot confirm whether they were able to affect the activation pathway (FIGS. 6A, B, and C) in the same or better way than the negative control (rIL-10). In the assays shown in FIGS. 5 (A, B, and C) and 6 (A, B, and C), IFN expression was analyzed in Jurkart-Dual reporter cells. In the assays shown in FIGS. 5 A, B, and C, cells were treated with peptides for 1 hour followed by the addition of IFN-α (104 EU/ml). Secreted Embryonic Alkaline Phosphatase (SEAP) production was measured after 12 hours of treatment (FIG. 5A), 24 hours of treatment (FIG. 5B), and 48 hours of treatment (FIG. 5C). In the assays shown in FIGS. 6 A, B, and C, cells were treated with IFN-α (104 EU/ml) for 1 hour, and then peptides were added. SEAP production was measured after (D) 12 hours of treatment (E) 24 hours of treatment, and (F) 48 hours of treatment. IFN-α (104 EU/mL) was used as a positive control and rIL-10 (0.4 ng/mL) as a negative control. * P<0.05.
# [6] = tested on: TLR4 signaling pathway; experiment: TLR4 signaling pathway (SEAP) in HEK cells, peptide pre-treatment then LPS; format: cell-based; settings: 12 hours
# Protocol: (§1) HEK cells were used to investigate the ability of the peptides to reduce activation of the TLR4 signaling pathway after 12 hours of treatment.
# (§2) In the assay shown in FIG. 7A, the cells were treated with peptides for 1 hour, then LPS (100 ng/ml) was added. SEAP production was measured after 12 hours of treatment. In the assay shown in FIG. 7B, the cells were treated with LPS (100 ng/ml) for 1 hour, then the peptides were added. SEAP production was measured after 12 hours of treatment. LPS (100 ng/mL) was used as positive control and IL-10 (0.4 ng/mL) as negative control. * P<0.05; ** P<0.005; *** P<0.0005.
# [7] = tested on: TLR4 signaling pathway; experiment: TLR4 signaling pathway (SEAP) in HEK cells, LPS pre-treatment then peptides; format: cell-based; settings: 12 hours
# Protocol: as §1, §2
# [8] = tested on: Dendritic cells from mice bone marrow; experiment: Co-stimulatory molecules on bone marrow dendritic cells; format: cell-based; settings: CD11c+ dendritic cells; 1 μM; 24 hours
# Protocol: Dendritic cells from mice bone marrow were isolated to analyze the effect of synthesized peptides Pep 1, Pep 2, Pep 3, and Pep 4 at two concentrations, 1 μM, and 10 μM, on reducing cell activation. […] In the assays, CD11c+CD86 cells (FIG. 8A) and CD11c+CD40+ cells (FIG. 8B) were used after 24 hours of treatment. LPS (100 ng/mL) was used as a positive control. * P<0.05; ** P<0.005.
# [9] = peptide 1 hour, then LPS 100 ng/ml, 100 μM
# [10] = LPS 100 ng/ml 1 hour, then peptide, 100 μM
substance,measurement,setting,value
"Pep 3: synthetic peptide with affinity to the Interleukin-10 receptor, SEQ ID No 03, linear chain (HCFDTQRMEFRMPPGGGS; INTERLEUKIN-10 MIMETIC PEPTIDE)",hydrodynamic radius,[1],0.79 nm
same,NFkB expression (luciferase),[2],unable to elicit any response
same,NFκB activation,"[3]; 0.01 μM, 48 hours",reducing pathway activation
same,NFκB activation,"[3]; 0.05 μM, 12 hours",reducing pathway activation
same,NFκB signaling,"[4]; TNF-α then peptide, 0.001 μM, 24 hours",less activation of the analyzed signaling pathway
same,NFκB signaling,"[4]; TNF-α then peptide, 0.005 μM, 12 hours",able to decrease NFκB signaling
same,NFκB signaling,"[4]; TNF-α then peptide, 0.005 μM, 24 hours",less activation of the analyzed signaling pathway
same,NFκB signaling,"[4]; TNF-α then peptide, 10 μM, 24 hours",less activation of the analyzed signaling pathway
same,activation of the IFN signaling pathway,[5]; 100 μM,activation of the pathway was reduced
same,TLR4 pathway activation,[6]; [9],significantly reduced pathway activation
same,activation of the TLR4 pathway,[7]; [10],activation of the TLR4 pathway was more significantly reduced
same,activation of the TLR4 pathway,"[7]; LPS then peptide, 0.1 μM",activation of the TLR4 pathway was more significantly reduced
same,activation of the TLR4 pathway,"[7]; LPS then peptide, 0.5 μM",activation of the TLR4 pathway was more significantly reduced
same,activation of the TLR4 pathway,"[7]; LPS then peptide, 10 μM",activation of the TLR4 pathway was more significantly reduced
"Pep 4: synthetic peptide with affinity to the Interleukin-10 receptor, SEQ ID No 04, linear chain (HCMTGSRATFPSAPGGGS; INTERLEUKIN-10 MIMETIC PEPTIDE)",hydrodynamic radius,[1],0.86 nm
same,NFkB expression (luciferase),[2],unable to elicit any response
same,NFκB activation,"[3]; 0.005 μM, 48 hours",reduced pathway activation
same,NFκB activation,"[3]; 0.01 μM, 48 hours",reduced pathway activation
same,NFκB activation,"[3]; 0.05 μM, 48 hours",reduced pathway activation
same,NFκB signaling,"[4]; TNF-α then peptide, 0.5 μM, 12 hours",able to decrease NFκB signaling
same,activation of the IFN signaling pathway,[5]; 0.05 μM,activation of the pathway was reduced
same,activation of the IFN signaling pathway,[5]; 100 μM,activation of the pathway was reduced
same,TLR4 pathway activation,[6]; [9],significantly reduced pathway activation
same,TLR4 pathway activation,"[6]; peptide then LPS, 1 μM",significantly reduced pathway activation
same,TLR4 pathway activation,"[6]; peptide then LPS, 5 μM",significantly reduced pathway activation
same,TLR4 pathway activation,"[6]; peptide then LPS, 10 μM",significantly reduced pathway activation
same,activation of the TLR4 pathway,[7]; [10],activation of the TLR4 pathway was more significantly reduced
same,activation of the TLR4 pathway,"[7]; LPS then peptide, 0.5 μM",activation of the TLR4 pathway was more significantly reduced
same,activation of the TLR4 pathway,"[7]; LPS then peptide, 1 μM",activation of the TLR4 pathway was more significantly reduced
same,activation of the TLR4 pathway,"[7]; LPS then peptide, 5 μM",activation of the TLR4 pathway was more significantly reduced
same,activation of the TLR4 pathway,"[7]; LPS then peptide, 10 μM",activation of the TLR4 pathway was more significantly reduced
"Pep 2: synthetic peptide with affinity to the Interleukin-10 receptor, SEQ ID No 02, without disulfide bridges (HASSAVIKSSSGGGS; INTERLEUKIN-10 MIMETIC PEPTIDE)",NFkB expression (luciferase),[2],unable to elicit any response
same,NFκB activation,"[3]; 0.1 μM, 12, 24 and 48 hours",decreased NFκB activation
same,NFκB activation,"[3]; 0.5 μM, 12, 24 and 48 hours",decreased NFκB activation
same,NFκB activation,"[3]; 1 μM, 12, 24 and 48 hours",decreased NFκB activation
same,NFκB activation,"[3]; 5 μM, 12, 24 and 48 hours",decreased NFκB activation
same,NFκB activation,"[3]; 10 μM, 12, 24 and 48 hours",decreased NFκB activation
same,NFκB activation,"[3]; 100 μM, 12, 24 and 48 hours",decreased NFκB activation
same,NFκB signaling,"[4]; TNF-α 200 ng/ml 1 hour, then peptide, 100 μM, 12 hours",able to decrease NFκB signaling
same,NFκB signaling,"[4]; TNF-α then peptide, 0.5 μM, 24 hours",less activation of the analyzed signaling pathway
same,NFκB signaling,"[4]; TNF-α then peptide, 1 μM, 12 hours",able to decrease NFκB signaling
same,NFκB signaling,"[4]; TNF-α then peptide, 1 μM, 24 hours",less activation of the analyzed signaling pathway
same,NFκB signaling,"[4]; TNF-α then peptide, 5 μM, 12 hours",able to decrease NFκB signaling
same,NFκB signaling,"[4]; TNF-α then peptide, 5 μM, 24 hours",less activation of the analyzed signaling pathway
same,NFκB signaling,"[4]; TNF-α then peptide, 10 μM, 12 hours",able to decrease NFκB signaling
same,NFκB signaling,"[4]; TNF-α then peptide, 100 μM, 24 hours",less activation of the analyzed signaling pathway
same,TLR4 pathway activation,[6]; [9],significantly reduced pathway activation
same,TLR4 pathway activation,"[6]; peptide then LPS, 0.1 μM",significantly reduced pathway activation
same,activation of the TLR4 pathway,[7]; [10],activation of the TLR4 pathway was more significantly reduced
same,activation of the TLR4 pathway,"[7]; LPS then peptide, 0.01 μM",activation of the TLR4 pathway was more significantly reduced
same,activation of the TLR4 pathway,"[7]; LPS then peptide, 0.05 μM",activation of the TLR4 pathway was more significantly reduced
same,activation of the TLR4 pathway,"[7]; LPS then peptide, 0.1 μM",activation of the TLR4 pathway was more significantly reduced
same,activation of the TLR4 pathway,"[7]; LPS then peptide, 0.5 μM",activation of the TLR4 pathway was more significantly reduced
same,activation of the TLR4 pathway,"[7]; LPS then peptide, 1 μM",activation of the TLR4 pathway was more significantly reduced
same,expression of CD40+,[8],decreased the expression of CD86+ and CD40+
same,expression of CD86+,[8],decreased the expression of CD86+ and CD40+
